Laboratory results published in US4820873A, “Pyrene derivatives” (priority 1984, dated 1989).
Counter-ions that a name gives are not always drawn.

Columns and labels:
Lewis Lung Carcinoma = Lewis Lung Carcinoma Test; assay type: in vivo, mouse (BD-F1 mice; tumor from C57B1/6 mouse); details: 150 mg/kg; administered as in P388/0 protocol; active if ≥140%
Source text: (§1) Methods for evaluating the antitumor activity of these compounds are essentially those used in the Tumor Panel by the Development Therapeutics Program, Division of Cancer Treatment, National Cancer Institute, A. Goldin, et al., Methods in Cancer Research, Vol. XVI, p. 165, Academic Press (1979). Some modifications in dose level and schedule have been made to increase the testing efficiency.
This tumor arose spontaneously in the lung of a C57B1/6 mouse and is maintained by subcutaneous passage in that strain. The solid tumor is excised aseptically and placed in sterile saline. Pieces of viable tumor tissue are minced finely with scissors and forced through a 200 mesh stainless steel screen to disaggregate the tumor cells into a suspension. 10^6 Viable cells and injected intravenously into the tail vein of BD-F1, mice of the same sex weighing 20±3 g. In each test, several dose levels which bracket the LD20 for the compound are evaluated. Ten animals are included in each dose level group, and twenty animals in the untreated control group. The test compounds are prepared and aministered as in the P388/0 protocol. The day of death for each animal is recorded, the median identified for each group and the ratios of median survival time for treated (T)/control (C) groups are calculated. The criterion for activity is T/C×100≥140%.

P388/0 tumor cells = assay: Lymphocytic Leukemia P388/0 Test; assay type: in vivo, CD2-F1 mice; details: median survival time; intraperitoneal, days 1, 5, 9; active if ≥120%; Optimal Dose (mg/kg): 2A 250; 2B 450; 3 120; 4 200; 5A 303; 6 366; 7 220; 8 300; 1A 300; 10 198; 11 300; 13 220; 15 555; 16 1013; 17B 250; 18 300; 19 40; 20G 125; 21C 168; 22D 180; 23B 18O
Source text: as §1
(§2) CD2-F1 mice, of the same sex, weighing 20±3 g, are used for this test. Control and test animals are injected intraperitoneally with a suspension of ~10^6 viable P388/0 tumor cells on day 0. In each test, several dose levels which bracket the LD20 of the compound are evaluated; each dose level group contains 6 animals. The test compounds are prepared either in physiologic saline containing 0.05% Tween 80 or distilled water containing 5% dextrose and are administered intraperitoneally on days 1, 5, and 9 relative to tumor implant. Doses are on a mg/kg basis according to individual animals' body weights. The day of death for each animal is recorded, the median identified for each group and the ratios of median survival time for treated (T)/control (C) groups are calculated. The criterion for activity is T/C×100≥120%.

LD20 in the P388/0 test = assay type: in vivo, CD2-F1 mice; details: intraperitoneal, days 1, 5, 9; doses are on a mg/kg basis
Procedure: as §2

L1210 cells = assay: Lymphocytic Leukemia L1210 Test; assay type: in vivo, CD-2-F1 mouse; details: 150 mg/kg; protocol as P388/0 (intraperitoneal, days 1, 5, 9); active if ≥125%
Source text: as §1, §2
The protocol for this test is identical to that for P388/0, except that the number of L1210 cells implanted on day 0 is ~105/mouse. […]

[1] = tested on: Mycoplasma smegmatis (S3264); assay: Antibacterial screening, Mycoplasma smegmatis, agar dilution assay; assay type: cell-based
Source text: Antibacterial testing against Mycoplasma smegmatis (S3264) and Streptococcus pyogens (CN10) was done with slight modifications using standard agar dilution assays as outlined in Manual of Clinical Microbiology, Second Ed., E. H. Lennette, E. H. Spaulding and J. P. Truant Eds., American Society for Microbiology, Washington, DC, 1974.

[2] = tested on: Candida albicans (CN1863); assay: Antifungal screening, Candida albicans, broth and agar dilution assays; assay type: cell-based; details: Medium: Wellcotest sensitivity test agar plus 7% lysed horse blood
Source text: Antifungal testing against Candida albicans (CN1863) was done with slight modifications using a combination of broth and agar dilution assays as outlined in Laboratory Handbook of Medical Mycology, Chapter 6, pages 441-446, M. R. McGinnis, Academic Press, New York, NY, 1980.
Medium: Wellcotest* sensitivity test agar plus 7% lysed horse blood.

Trichomonas vaginalis = assay: Antiprotozoal testing, Trichomonas vaginalis (in vitro); assay type: cell-based; details: 40 mg/L, Stenton or Modified Diamond's medium, read-out: Result (screen code, inhibition)
Source text: Antiprotozoal testing against Trichomonas vaginalis was done using methods outlined by R. M. Michaels in Advances in Chemotherapy, 3, 39-108 (1968).
(Stenton or Modified Diamond's medium)

[3] = tested on: Nippostrongylus brasiliensis (Immature - free living stages); assay: Anthelmintic screening, Nippostrongylus brasiliensis; assay type: cell-based
Source text: Anthelmintic testing against Nippostrongylus brasiliensis was done using methods as outlined in D. C. Jenkins, R. Armitage, and T. S. Carrington, Zetschrift fur Parasitenkunde 63, 261-269 (1980).

LD50 Tests = details: in vivo; IP single dose - CD1 Male Mouse
Source text: |(IP single dose - CD1 Male Mouse)

Molecule: CC(CO)(CO)NCc1ccc2ccc3cccc4ccc1c2c34 [Example 1B, 2-methyl-2-((1-pyrenylmethyl)amino)-1,3-propanediol methanesulfonate]
- T/C × 100% Excluding 60 day Survivors (Lewis Lung Carcinoma): 208%

Molecule: 2-((6-Bromo-1-pyrenylmethyl)amino)-2-methyl-1,3-propanediol hydrochloride and 2-((8-Bromo-1-pyrenylmethyl)amino)-2-methyl-1,3-propanediol hydrochloride [Example 17B]
- T/C × 100% (Excluding 30 Day Survivors) (P388/0 tumor cells): +135%
- LD20 (LD20 in the P388/0 test): 557

Molecule: CC(CO)(CO)NCc1ccc2ccc3cccc4ccc1c2c34 [Example 1A, 2-methyl-2-((1-pyrenylmethyl)amino)-1,3-propanediol hydrochloride]
- LD20 (LD20 in the P388/0 test): 375
- T/C × 100% Excluding 30 day Survivors (L1210 cells): +129%
- MIC [1]: ≤ 5 mg/L
- MIC [2]: 50 mg/L
- inhibition at 40 µg/mL (Trichomonas vaginalis): 76 to 100%
- MIC [3]: 50 mg/L
- LD50 (LD50 Tests): 350 mg/kg
